# Measured values: patent publication US9139567B2, “Arylpyrazole ethers as inhibitors of leukotriene A4 hydrolase” (Boehringer Ingelheim International GmbH, priority 2011, dated 2015)
# Assays:
# human LTA4 hydrolase = molecular target: T1, human LTA4 hydrolase (Homo sapiens, UniProt P09960); test: LTA4H enzyme assay (cleavage of Arg-AMC, fluorescence); type: biochemical; details: LTA4H enzyme 1 nM, Arg-AMC substrate 50 μM, room temperature 1 h
# T1 sequence (P09960 1-611): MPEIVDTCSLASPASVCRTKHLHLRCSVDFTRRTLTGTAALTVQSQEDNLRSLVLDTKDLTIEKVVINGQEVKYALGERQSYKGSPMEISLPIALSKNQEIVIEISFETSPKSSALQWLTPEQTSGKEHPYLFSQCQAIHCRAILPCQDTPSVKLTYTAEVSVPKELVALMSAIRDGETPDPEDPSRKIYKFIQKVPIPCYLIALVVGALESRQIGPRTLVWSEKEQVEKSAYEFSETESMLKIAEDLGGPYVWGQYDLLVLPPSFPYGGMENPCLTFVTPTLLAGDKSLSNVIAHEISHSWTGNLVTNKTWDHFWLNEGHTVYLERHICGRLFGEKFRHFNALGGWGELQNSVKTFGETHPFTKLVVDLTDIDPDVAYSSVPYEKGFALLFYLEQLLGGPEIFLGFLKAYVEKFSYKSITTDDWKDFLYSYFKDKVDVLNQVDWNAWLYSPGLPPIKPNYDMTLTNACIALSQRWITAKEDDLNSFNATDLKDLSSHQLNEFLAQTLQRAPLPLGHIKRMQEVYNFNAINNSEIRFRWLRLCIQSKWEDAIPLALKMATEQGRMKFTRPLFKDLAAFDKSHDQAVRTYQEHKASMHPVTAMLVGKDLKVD
# Experimental: Compounds are assessed for the ability to interact with human LTA4 hydrolase in an enzymatic assay that measures the ability of the enzyme to cleave the peptide bond of arginyl-aminomethylcoumarin (Arg-AMC). LTA4H Enzyme (1 nM final), Arg-AMC substrate (50 μM final), and compound are combined in a reaction buffer (50 mM Tris-HCl (pH 7.5), 100 mM KCl, 0.5% bovine serum albumin) at room temperature for 1 h. The formation of product is assessed by measuring the fluorescence of aminomethylcoumarin product (excitation wavelength 380 nm/emission wavelength 460 nm).
# [1] = test system: LTB4 production in human whole blood; test: LTB4 production inhibition assay in human whole blood (calcimycin-stimulated); type: cell-based; details: heparinized human whole blood, 15 min 37° C., calcimycin 20 μM 30 min, plasma LTB4 by HTRF
# Experimental: Compounds of the invention are additionally tested in a human whole blood assay to determine their ability to inhibit the synthesis of LTB4 in a cellular system. Compounds are combined with heparinized human whole blood and incubated for 15 minutes at 37° C. Calcimycin (20 μM final, prepared in phosphate-buffered saline, pH 7.4) is then added and the mixture is incubated for another 30 minutes at 37° C. The samples are centrifuged for 5 min at low speed (1500×g) and the plasma layer is removed. Plasma LTB4 concentrations are then measured using an antibody-based homogenous time-resolved fluorescence method (CisBio, Bedford, Mass.).
SMILES,IC50 (human LTA4 hydrolase) [nM],IC50 [1] [nM]
"O=C1CC[C@@H](Oc2ccc(Oc3ccc(-c4ccn[nH]4)nc3)cc2)CN1 [Example 95, (5R)-5-(4-{[6-(1H-pyrazol-5-yl)pyridin-3-yl]oxy}phenoxy)piperidin-2-one]",1.6,367
"O=C1CC[C@@H](COc2ccc(Oc3ccc(-c4ccn[nH]4)cc3)cc2)N1 [Example 2, (5S)-5-({4-[4-(1H-pyrazol-5-yl)phenoxy]phenoxy}methyl)pyrrolidin-2-one]",0.2,163
"O=C1CCCN1CCCOc1ccc(Oc2ccc(-c3ccn[nH]3)cc2)cc1 [Example 23, 1-(3-{4-[4-(1H-pyrazol-5-yl)phenoxy]phenoxy}propyl)pyrrolidin-2-one]",0.7,529
"c1cc(-c2ccc(Oc3ccc(OCc4ccc5nccn5c4)cc3)cc2)[nH]n1 [Example 76, 6-({4-[4-(1H-pyrazol-5-yl)phenoxy]phenoxy}methyl)imidazo[1,2-a]pyridine]",0.9,1420
"CC(COc1ccc(Oc2ccc(-c3ccn[nH]3)cc2)cc1)Cn1cccn1 (stereo not drawn) [Example 79, 1-(2-methyl-3-{4-[4-(1H-pyrazol-5-yl)phenoxy]phenoxy}propyl)-1H-pyrazole]",2.7,2110
"c1cncc(CCOc2ccc(Oc3ccc(-c4ccn[nH]4)cc3)cc2)c1 [Example 29, 3-(2-{4-[4-(1H-pyrazol-5-yl)phenoxy]phenoxy}ethyl)pyridine]",4.9,2280
"c1cc(-c2ccc(Oc3ccc(O[C@@H]4CCOC4)cc3)cc2)[nH]n1 [Example 4, 5-(4-{4-[(3R)-tetrahydrofuran-3-yloxy]phenoxy}phenyl)-1H-pyrazole]",3.9,1040
"c1cc(-c2ccc(Oc3ccc(O[C@H]4CCOC4)cc3)cc2)[nH]n1 [Example 90, 5-(4-{4-[(3S)-tetrahydrofuran-3-yloxy]phenoxy}phenyl)-1H-pyrazole]",2.4,777
"O=C1NC(COc2ccc(Oc3ccc(-c4ccn[nH]4)cc3)cc2)CO1 (stereo not drawn) [Example 10, 4-({4-[4-(1H-pyrazol-5-yl)phenoxy]phenoxy}methyl)-1,3-oxazolidin-2-one]",0.2,126
"c1cc(-c2ccc(Oc3ccc(OCc4cc[nH]n4)cc3)cc2)[nH]n1 [Example 46, 3-({4-[4-(1H-pyrazol-5-yl)phenoxy]phenoxy}methyl)-1H-pyrazole]",6.1,4900
"c1cc(-c2ccc(Oc3ccc(OCc4ccc5ncsc5c4)cc3)cc2)[nH]n1 [Example 71, 6-({4-[4-(1H-pyrazol-5-yl)phenoxy]phenoxy}methyl)-1,3-benzothiazole]",59.5,≥ 5000
"O=C1N[C@@H](COc2ccc(Cc3ccc(-c4ccn[nH]4)cc3)cc2)CO1 [Example 20, (4S)-4-({4-[4-(1H-pyrazol-5-yl)benzyl]phenoxy}methyl)-1,3-oxazolidin-2-one]",0.6,229
"O=C1CC[C@H](Oc2ccc(Oc3ccc(-c4cc[nH]n4)cc3)cc2)CN1 [Example 13, (5S)-5-{4-[4-(1H-pyrazol-3-yl)phenoxy]phenoxy}piperidin-2-one]",0.5,214
"O=C1CCCN1CCOc1ccc(Oc2ccc(-c3ccn[nH]3)cc2)cc1 [Example 21, 1-(2-{4-[4-(lH-pyrazol-5-yl)phenoxy]phenoxy}ethyl)pyrrolidin-2-one]",0.7,813
"Cc1ncsc1CCOc1ccc(Oc2ccc(-c3ccn[nH]3)cc2)cc1 [Example 67, 4-Methyl-5-(2-{4-[4-(2H-pyrazol-3-yl)-phenoxy]-phenoxy}-ethyl)-thiazole]",11.2,≥ 5000
"C[C@H](Oc1ccc(Oc2ccc(-c3ccn[nH]3)cc2)cc1)c1ccccn1 [Example 58, 2-[(1S)-1-{4-[4-(1H-pyrazol-5-yl)phenoxy]phenoxy}ethyl]pyridine]",44,≥ 5000
"O=C1NCC[C@@H]1Oc1ccc(Oc2ccc(-c3ccn[nH]3)cc2)cc1 [Example 9, (3S)-3-{4-[4-(1H-pyrazol-5-yl)phenoxy]phenoxy}pyrrolidin-2-one]",76.7,≥ 5000
"c1cc(-c2ccc(Oc3ccc(OCC4CCOCC4)cc3)cc2)[nH]n1 [Example 84, 5-{4-[4-(tetrahydro-2H-pyran-4-ylmethoxy)phenoxy]phenyl}-1H-pyrazole]",4.6,1460
"c1cc(-c2ccc(Oc3ccc(OCc4cnc5cc[nH]c5c4)cc3)cc2)[nH]n1 [Example 49, 6-({4-[4-(1H-pyrazol-5-yl)phenoxy]phenoxy}methyl)-1H-pyrrolo[3,2-b]pyridine]",1.2,3140
"c1cc(-c2ccc(Oc3ccc(OCCC4CCCCO4)cc3)cc2)[nH]n1 (stereo not drawn) [Example 93, 5-(4-{4-[2-(tetrahydro-2H-pyran-2-yl)ethoxy]phenoxy]phenyl)-1H-pyrazole]",26.9,4600
"Cc1nc(COc2ccc(Oc3ccc(-c4ccn[nH]4)cc3)cc2)co1 [Example 60, 2-methyl-4-({4-[4-(1H-pyrazol-5-yl)phenoxy]phenoxy}methyl)-1,3-oxazole]",3.9,≥ 5000
"c1cc(-c2ccc(Oc3ccc(OCc4cn5ccsc5n4)cc3)cc2)[nH]n1 [Example 36, 6-({4-[4-(1H-pyrazol-5-yl)phenoxy]phenoxy}methyl)imidazo[2,1-b][1,3]thiazole]",6,4500
"c1cc(-c2ccc(Oc3ccc(OCC4CCCO4)cc3)cc2)[nH]n1 (stereo not drawn) [Example 5, 5-{4-[4-(tetrahydrofuran-2-ylmethoxy)phenoxy]phenyl}-1H-pyrazole]",6.8,1350
"c1cc(-c2ccc(Oc3ccc(OC4CCCOC4)cc3)cc2)[nH]n1 (stereo not drawn) [Example 94, 5-{4-[4-(tetrahydro-2H-pyran-3-yloxy)phenoxy]phenyl}-1H-pyrazole]",14.1,2000
"c1cc(-c2ccc(Oc3ccc(OCc4cscn4)cc3)cc2)[nH]n1 [Example 38, 4-{4-[4-(2H-Pyrazol-3-yl)-phenoxy]-phenoxymethyl}-thiazole]",3.3,≥ 5000
"Cc1nnsc1COc1ccc(Oc2ccc(-c3ccn[nH]3)cc2)cc1 [Example 77, 4-Methyl-5-{4-[4-(2H-pyrazol-3-yl)-phenoxy]-phenoxymethyl}-[1,2,3]thiadiazole]",1,492
"c1cc(-c2ccc(Oc3ccc(OCC4CCOC4)cc3)cc2)[nH]n1 (stereo not drawn) [Example 92, 5-{4-[4-(tetrahydrofuran-3-ylmethoxy)phenoxy]phenyl}-1H-pyrazole]",3.3,1200
"c1cc(-c2ccc(Oc3ccc(OCC4COCCN4)cc3)nc2)[nH]n1 (racemic) [Example 16, 3-[(4-{[5-(1H-pyrazol-5-yl)pyridin-2-yl]oxy}phenoxy)methyl]morpholine]",0.2,52
"c1ccn2cc(COc3ccc(Oc4ccc(-c5ccn[nH]5)cc4)cc3)nc2c1 [Example 53, 2-({4-[4-(1H-pyrazol-5-yl)phenoxy]phenoxy}methyl)imidazo[1,2-a]pyridine]",3.7,≥ 5000
"c1cc(-c2ccc(Oc3ccc(OCC4CCCCO4)cc3)cc2)[nH]n1 (stereo not drawn) [Example 91, 5-{4-[4-(tetrahydro-2H-pyran-2-ylmethoxy)phenoxy]phenyl}-1H-pyrazole]",10.7,≥ 5000
